Results as given in patent publication US20090239839A1, “RECEPTOR ANTAGONIST” (TAKEDA PHARMACEUTICAL COMPANY LIMITED, priority 2003, published 2009).
Structures can show the parent of a compound that is named as a salt.

Experiments:
human-type OT7T022 = biological target: T1, human-type OT7T022 (Homo sapiens, UniProt Q9GZQ6); test: Binding inhibiting activity using human-type OT7T022-expressing CHO cell; conditions: 125I-labeled Y-RFRP-3 100 pM, membrane fraction, room temperature 1.5 hours; read-out: IC50 value (binding inhibiting rate)
T1 construct: expressed in transfected cells; host or cells: CHO cells (membrane fraction)
T1 sequence (Q9GZQ6 whole entry): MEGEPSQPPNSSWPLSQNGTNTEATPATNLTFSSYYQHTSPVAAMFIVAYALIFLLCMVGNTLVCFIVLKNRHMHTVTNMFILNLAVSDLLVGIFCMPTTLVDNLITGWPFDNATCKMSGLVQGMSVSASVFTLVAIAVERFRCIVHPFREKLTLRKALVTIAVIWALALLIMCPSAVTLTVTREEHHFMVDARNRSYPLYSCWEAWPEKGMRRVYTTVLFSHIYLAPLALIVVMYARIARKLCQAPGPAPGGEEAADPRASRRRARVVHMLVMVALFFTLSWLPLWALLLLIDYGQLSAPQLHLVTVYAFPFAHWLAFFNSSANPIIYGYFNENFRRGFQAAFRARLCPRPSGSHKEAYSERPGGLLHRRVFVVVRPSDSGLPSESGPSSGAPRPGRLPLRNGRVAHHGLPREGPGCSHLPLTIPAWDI
Procedure: Assessment of Binding Inhibiting Activity of Test Compound Using Human-Type OT7T022-Expressing CHO Cell
Twenty μm of a peptide (Y-RFRP-3) (sequence: Tyr-Val-Pro-Asn-Leu-Pro-Gln-Arg-Phe-amide) (0.1 mM) in which a Tyr residue had been added to a N-terminus of hRFRP-3-8 (sequence: Val-Pro-Asn-Leu-Pro-Gln-Arg-Phe-amide) having binding inhibiting activity equivalent to that of endogenous human-type RFRP-3 (hRFRP-3-28) for human-type OT7T022-expressing CHO cell and 10 μl of distilled water were mixed, 20 μl of a lactoperoxidase solution (Sigma, prepared using 0.1 M HEPES-NaOH, pH 7.0 in 10 μg/mL), 10 μl of Iodine-125 (Amersham, IMS-30, 74 MBq), and 20 μl of 0.005% hydrogen peroxide (Wako Pure Chemical Industries, Ltd.) were successively mixed therein, the mixture was allowed to stand at room temperature for 10 minutes, 600 μl of 0.1% TFA-water was added, this was separated by reverse phase HPLC, a peak of the labeled form was collected, an equivalent amount of a buffer for a binding test (50 mM TrisHCl (pH 7.5), 0.1% BSA, 5 mM EDTA, 0.5 mM PMSF, 20 μg/mL leupeptin, 0.1 μg/mL pepstatin A, […]) was added, and this was immediately stored on ice. A part thereof was 1/100 diluted, radioactivity was measured with a γ-counter, and the remaining authentic product was distributed, which was stored at −30° C.
To a 96-well microplate were added 1 μg of a membrane fraction, a compound and Y-RFRP-3 labeled with ^125I, which had been diluted with a reaction buffer (50 mM Tris-HCl, 5 mM EDTA, 0.1% BSA, 0.5 mM PMSF, 20 μg/ml leupeptin, 0.1 μg/ml pepstatin A, 4 μg/ml E-64, 10 mM MgCl2, pH 7.5), to 100 pM to react them at room temperature for 1.5 hours. For measuring non-specific binding, non-labeled Y-RFRP-3 was further added to […]. Then, a membrane fraction was transferred to a unifilter GF/C (Perkin Elmer) by filtering the reaction mixture using a cell harvester (Perkin Elmer), and this was washed with a cooled 50 mM Tris buffer (pH 7.5) five times. The filter was dried, Microsinti (Packard) was added to the filter, and radioactivity was measured with Topcount (Packard).
A binding inhibiting rate (IC50 value) of a test compound is shown in [Table 1].

rat-type OT7T022 = biological target: T2, rat-type OT7T022 (Rattus norvegicus, UniProt Q9EP86); test: Binding inhibiting activity using rat-type OT7T022-expressing CHO cell membrane fraction; conditions: iodine-labeled Y-RFRP-3 100 pM, membrane fraction 0.75 μg/well
T2 construct: expressed in transfected cells; host or cells: CHO cells (membrane fraction)
T2 sequence (Q9EP86 whole entry): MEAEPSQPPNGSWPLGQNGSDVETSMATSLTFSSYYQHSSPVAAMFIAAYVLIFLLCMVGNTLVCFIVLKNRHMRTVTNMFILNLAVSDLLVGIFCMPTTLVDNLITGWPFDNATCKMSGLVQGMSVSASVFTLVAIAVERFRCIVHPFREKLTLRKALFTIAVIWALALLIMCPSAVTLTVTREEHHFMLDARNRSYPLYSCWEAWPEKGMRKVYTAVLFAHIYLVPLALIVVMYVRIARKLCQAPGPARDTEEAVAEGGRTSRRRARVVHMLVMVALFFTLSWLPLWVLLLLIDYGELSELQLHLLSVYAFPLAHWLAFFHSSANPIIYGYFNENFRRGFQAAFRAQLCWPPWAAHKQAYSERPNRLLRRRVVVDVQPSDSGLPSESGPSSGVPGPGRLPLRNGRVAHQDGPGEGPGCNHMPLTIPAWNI
Procedure: Assessment of Binding Inhibiting Activity of Test Compound Using Rat-Type OT7T022-Expressing CHO Cell
A flask in which a rat-type OT7T022-expressing CHO cell had been cultured was washed with 5 mM EDTA/PBS, cells were peeled with 5 mM EDTA/PBS, and cells were recovered by centrifugation, suspended in 25 mL of a buffer for preparing a membrane fraction (50 mM Tris-HCl, pH 7.5, 5 mM EDTA, 0.5 mM PMSF (manufactured by Wako Pure Chemical Industries, Ltd.), […] (manufactured by Peptide Laboratory), 0.1 μg/mL pepstatin A (manufactured by Peptide Laboratory), 4 μg/mL E-64 (manufactured by Peptide Laboratory)), and homogenized on an ice using Polytron (12,000 rpm, 15 seconds×3 times). This was centrifuged in a high speed cooling centrifuge at 4° C. and 1,000 g for 10 minutes, and the supernatant was recovered. 25 mL of a buffer for preparing a membrane fraction was added to precipitates, and the supernatant was recovered by the same procedure. These supernatants were combined, subjected to a cell strainer, dispensed into tubes for a supercentrifuge, and centrifuged at 4° C. and 100,000 g for 1 hour. The pellet was suspended in a small amount of a buffer for preparing a membrane fraction, this was suspended using a Teflon (registered trade mark) homogenizer, a protein amount was measured using a part, and the remaining was dispensed, and stored at −80° C.
Using an assay buffer (50 mM Tris-HCl, pH 7.5, 5 mM EDTA, 0.5 mM PMSF, 20 μg/mL leupeptin, 0.1 μg/mL pepstatin A, 4 μg/mL E-64, 0.1% bovine serum albumin, 10 mM MgCl2), a membrane fraction of a rat-type OT7T022-expressing CHO cell was diluted to the final concentration of 0.75 μg/well, and iodine-labeled Y-RFRP-3 was diluted to the final concentration of 100 pM. Regarding a sample compound, a 10^−2M or 10^−3M stock solution was diluted with an assay buffer so that the final concentration became 10^−5M, 10^−6M, 10^−7M, 10^−8M, 10^−9M, 10^−10M or 10^−11M. For non-specific binding, hRFRP-3-8 having the final concentration of 10^−5M was prepared. Using a polypropylene 96-well plate, a prepared sample solution, a non-specific binding solution, and 50 μl of an assay buffer for total binding were dispensed, 25 μl of an iodine-labeled form diluent was added, the mixture was stirred, 25 μl of a rat-type OT7T022-expressing CHO cell membrane fraction solution was dispensed, and this was stirred, and incubated at room temperature for 1.5 hours. This was transferred to a unifilter (Perkin Elmer) pre-wetted with a washing buffer (50 mM Tris-HCl, pH 7.5) using a harvester for a 96-well plate (Packard), and this was washed with a washing buffer six times, and sufficiently dried. 50 μl of Microscinti O (Packard) was dispensed, radioactivity was measured with Top Count (Packard), and data were analyzed in a triplicate manner. Binding inhibiting activity (IC50 value) of a test compound for rat-type OT7T022 is shown in [Table 3].

RFRP-1-administered rats = test: Inhibitory activity of increase in blood glucose and blood glucagon concentration in RFRP-1-administered rats; assay type: in vivo, rat
ICR mouse = test: Analgesic activity in mouse, SP-it test method; assay type: in vivo; conditions: for Chewing time: counted for 1 minute
Procedure: Analgesic Activity in Mouse
Analgesic activity of an RFRP receptor antagonist on provisional pain caused by intrathecal injection (it administration) of substance P (SP) was investigated. In a test, one group (10 animals) of an ICR mouse (♂), 5 week old, was used. A skin of a back of a mouse was excised under ether anesthesia and, after 3 hours or longer recovering time, substance P (SP) was dissolved in a physiological saline, and this was administered by intrathecal injection (between L5-L6) at 10 ng/5 μL/mouse. A physiological saline and the compound of Example 50 were administered by intrathecal injection as a mixed solution with substance P (SP) at a dose of 1, 3 or 10 μg/mouse. From immediately after administration, the number of alternate chewing at a lower abdomen by a mouse was counted for 1 minute, and the time was used as an index for a provisional pain reaction due to substance P (SP).

Row | Compound | IC50 (human-type OT7T022) [nM] | IC50 (rat-type OT7T022) [nM] | other results
1 | CCCCCNCCCOc1cccc([C@H]2O[C@H](CC(=O)NCc3ccccc3F)C(=O)N(CC(C)(C)C)c3ccc(Cl)cc32)c1OC (relative stereo) [Example 4, 2-{3,5-trans-7-Chloro-1-(2,2-dimethylpropyl)-5-[2-methoxy-3-(3-(pentylamino)propoxy)phenyl]-2-oxo-1,2,3,5-tetrahydro-4,1-benzoxazepin-3-yl}-N-(2-fluorobenzyl)acetamide hydrochloride] | < 1000 | < 1000 | 
2 | COc1c(OCCCNCCCc2ccccc2Cl)cccc1[C@H]1O[C@H](CC(=O)NCc2ccccc2F)C(=O)N(CC(C)(C)C)c2ccc(Cl)cc21 (relative stereo) [Example 14, trans-2-{7-Chloro-5-[3-(3-{[3-(2-chlorophenyl)propyl]amino}propoxy)-2-methoxyphenyl]-1-(2,2-dimethylpropyl)-2-oxo-1,2,3,5-tetrahydro-4,1-benzoxazepin-3-yl}-N-(2-fluorobenzyl)acetamide hydrochloride] | < 1000 | < 1000 | 
3 | COc1c(OCCCNC/C=C/c2ccccc2)cccc1[C@H]1O[C@H](CC(=O)NCc2ccccc2F)C(=O)N(CC(C)(C)C)c2ccc(Cl)cc21 (relative stereo) [Example 18, trans-2-[7-Chloro-1-(2,2-dimethylpropyl)-5-[2-methoxy-3-(3-{[(2E)-3-phenyl-2-propenyl]amino}propoxy)phenyl]-2-oxo-1,2,3,5-tetrahydro-4,1-benzoxazepin-3-yl]-N-(2-fluorobenzyl)acetamide hydrochloride] | < 1000 | < 1000 | 
4 | CCCNC(=O)C[C@H]1O[C@H](c2cccc(OCCCNCCCc3ccccc3)c2OC)c2cc(Cl)ccc2N(CC(C)(C)C)C1=O (relative stereo) [Example 46, trans-2-[7-Chloro-1-(2,2-dimethylpropyl)-5-(2-methoxy-3-{3-[(3-phenylpropyl)amino]propoxy}phenyl)-2-oxo-1,2,3,5-tetrahydro-4,1-benzoxazepin-3-yl]-N-propylacetamide hydrochloride] | < 1000 | < 1000 | 
5 | COc1c(OCCCNCCCc2ccccc2)cccc1[C@H]1O[C@H](CC(=O)N2CCNCC2)C(=O)N(CC(C)(C)C)c2ccc(Cl)cc21.Cl.Cl (relative stereo) [Example 50, trans-7-Chloro-1-(2,2-dimethylpropyl)-5-(2-methoxy-3-{3-[(3-phenylpropyl)amino]propoxy}phenyl)-3-[2-oxo-2-(1-piperazinyl)ethyl]-1,5-dihydro-4,1-benzoxazepine-2(3H)-one dihydrochloride] | < 1000 | < 1000 | inhibition of activity of increasing blood glucose concentration due to RFRP-1 (RFRP-1-administered rats; 5 mg/kg intravenous): inhibited significantly (p<0.01, n=4); inhibition of activity of increasing blood glucagon concentration due to RFRP-1 (RFRP-1-administered rats; 5 mg/kg intravenous, 2 minutes after administration of RFRP-1 (p<0.05)): significantly inhibited; inhibition of activity of increasing blood glucagon concentration due to RFRP-1 (RFRP-1-administered rats; 5 mg/kg intravenous, 5 minutes after administration of RFRP-1 (p<0.001)): significantly inhibited; inhibition of increase in blood glucagon concentration due to RFRP-1 (RFRP-1-administered rats; 0.2, 1 or 5 mg/kg intravenous 5 minutes before RFRP-1): inhibits increase in a blood glucagon concentration due to RFRP-1 in a dose dependent manner; inhibition of increase in blood glucose concentration due to RFRP-1 (RFRP-1-administered rats; 0.2, 1 or 5 mg/kg intravenous 5 minutes before RFRP-1, vs control group): inhibits increase in a blood glucose concentration due to RFRP-1 in a dose dependent manner; analgesic activity (pain reaction due to substance P) (ICR mouse; 1, 3 or 10 μg/mouse intrathecal): a pain reaction due to substance P (SP) is inhibited in a dose dependent manner; Chewing time (ICR mouse; dose 1 μg/mouse intrathecal with substance P 10 ng/mouse): 71.8 ± 5.1; Chewing time (ICR mouse; dose 3 μg/mouse intrathecal with substance P 10 ng/mouse): 18.6 ± 4.1; Chewing time (ICR mouse; dose 10 μg/mouse intrathecal with substance P 10 ng/mouse): 0.0 ± 0.0; decrease in the chewing time (ICR mouse; dose of 3 and 10 μg/mouse intrathecal): significant (p<0.01) decrease in the chewing time
6 | COc1c(OCCCNCCCc2ccccc2)cccc1[C@H]1O[C@H](CC(=O)N2CCC(O)CC2)C(=O)N(CC(C)(C)C)c2ccc(Cl)cc21 (relative stereo) [Example 85, trans-7-Chloro-1-(2,2-dimethylpropyl)-3-[2-(4-hydroxypiperidin-1-yl)-2-oxoethyl]-5-(2-methoxy-3-{3-[(3-phenylpropyl)amino]propoxy}phenyl)-1,5-dihydro-4,1-benzoxazepine-2(3H)-one hydrochloride] | < 1000 | < 1000 | 
7 | COc1c(OCCCNCCCc2ccccc2)cccc1[C@H]1O[C@H](CC(=O)N2CCNC(C(=O)O)C2)C(=O)N(CC(C)(C)C)c2ccc(Cl)cc21 (relative stereo) [Example 86, 4-{[3,5-trans-7-Chloro-1-(2,2-dimethylpropyl)-5-(2-methoxy-3-{3-[(3-phenylpropyl)amino]propoxy}phenyl)-2-oxo-1,2,3,5-tetrahydro-4,1-benzoxazepin-3-yl]acetyl}piperazine-2-carboxylic acid dihydrochloride] | < 1000 | < 1000 | 
